The results in this text go back to patent publication US20240217983A1, “GPR119 AGONISTS” (Kallyope, Inc., priority 2021, published 2024).

Where a name gives a salt, the structure may show the parent alone. Bounds are passed on as bounds.

This experiment has as its target T1, human GPR119 (hGPR119) (Homo sapiens, UniProt Q8TDV5).
T1 construct: expressed in transfected cells
T1 sequence (Q8TDV5 1-335): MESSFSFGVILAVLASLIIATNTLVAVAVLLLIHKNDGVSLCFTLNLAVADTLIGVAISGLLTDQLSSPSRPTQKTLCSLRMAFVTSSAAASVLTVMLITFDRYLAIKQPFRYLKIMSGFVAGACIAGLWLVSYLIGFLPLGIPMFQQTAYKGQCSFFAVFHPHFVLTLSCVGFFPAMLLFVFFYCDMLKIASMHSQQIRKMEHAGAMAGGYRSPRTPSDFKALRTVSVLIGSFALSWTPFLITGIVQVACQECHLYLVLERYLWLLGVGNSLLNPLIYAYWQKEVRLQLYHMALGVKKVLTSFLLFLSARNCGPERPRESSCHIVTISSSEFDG
Nature of the experiment: cAMP accumulation assay (Cisbio cAMP Gs dynamic HTRF kit) in CHO-K1 cells stably expressing human GPR119. The format is cell-based. The following applies: 4-parameter fit; for Emax: 1 h, % activity normalized to Max and Min controls; for EC50: 60 minutes at 37° C. The essentials:
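Read-out is HTRF 665/620 nm ratio after 1 h detection at ambient temperature, converted to % activity against positive and negative controls, EC50 and Max activity by 4-parameter fit. Compounds were titrated onto ~10,000 thawed hGPR119-CHO-K1 cells/well for 60 min at 37° C/5% CO2.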

As for `O=C(Cc1ccc(OCCCC2CCN(c3ncc(Cl)cn3)CC2)cc1F)N1C[C@H]2CCN(C[C@H](O)[C@@H](O)[C@H](O)[C@H](O)CO)[C@H]2C1` [Example 65, 2-(4-(3-(1-(5-chloropyrimidin-2-yl)piperidin-4-yl)propoxy)-2-fluorophenyl)-1-((3aR,6aR)-1-((2S,3R,4R,5R)-2,3,4,5,6-pentahydroxyhexyl)hexahydropyrrolo[3,4-b]pyrrol-5(1H)-yl)ethan-1-one], the Emax was in the range of 100 to 130% and the EC50 is no more than 0.1 µM.

The compound `O=C(Cc1ccc(OCCCC2CCN(c3ncc(Cl)cn3)CC2)cc1F)N1CC2(CCN(C[C@H](O)[C@H](O)[C@H](O)CO)C2)C1` [Example 66, 2-(4-(3-(1-(5-chloropyrimidin-2-yl)piperidin-4-yl)propoxy)-2-fluorophenyl)-1-(6-((2S,3S,4R)-2,3,4,5-tetrahydroxypentyl)-2,6-diazaspiro[3.4]octan-2-yl)ethan-1-one] showed an Emax of 100 to 130% and an EC50 of no more than 0.1 µM.

For `O=C(Cc1ccc(OCCCC2CCN(c3ncc(Cl)cn3)CC2)cc1F)N1CCC2(CC1)CCN2C[C@H](O)[C@H](O)[C@H](O)CO` [Example 67, 2-(4-(3-(1-(5-chloropyrimidin-2-yl)piperidin-4-yl)propoxy)-2-fluorophenyl)-1-(1-((2S,3S,4R)-2,3,4,5-tetrahydroxypentyl)-1,7-diazaspiro[3.5]nonan-7-yl)ethan-1-one], the Emax lay in the range of 100 to 130% and the EC50 is no more than 0.1 µM.

For the compound `O=C(Cc1ccc(OCCCC2CCN(c3ncc(Cl)cn3)CC2)cc1F)N1CCC2(CC1)CCN2C[C@H](O)[C@@H](O)[C@H](O)[C@H](O)CO` [Example 68, 2-(4-(3-(1-(5-chloropyrimidin-2-yl)piperidin-4-yl)propoxy)-2-fluorophenyl)-1-(1-((2S,3R,4R,5R)-2,3,4,5,6-pentahydroxyhexyl)-1,7-diazaspiro[3.5]nonan-7-yl)ethan-1-one], the Emax lay in the range of 100 to 130% and the EC50 was no more than 0.1 µM.

As to `O=C(Cc1ccc(OCCCC2CCN(c3ncc(Cl)cn3)CC2)cc1F)N1CCC2(CC1)CN(C[C@H](O)[C@H](O)[C@H](O)CO)C2` [Example 69, 2-(4-(3-(1-(5-chloropyrimidin-2-yl)piperidin-4-yl)propoxy)-2-fluorophenyl)-1-(2-((2S,3S,4R)-2,3,4,5-tetrahydroxypentyl)-2,7-diazaspiro[3.5]nonan-7-yl)ethan-1-one], the Emax lay in the range of 100 to 130% and the EC50 lay within 0.1 to 1 µM.

`O=C(Cc1ccc(OCCCC2CCN(c3ncc(Cl)cn3)CC2)cc1F)N1CCC2(CC1)CN(C[C@H](O)[C@@H](O)[C@H](O)[C@H](O)CO)C2` [Example 70, 2-(4-(3-(1-(5-chloropyrimidin-2-yl)piperidin-4-yl)propoxy)-2-fluorophenyl)-1-(2-((2S,3R,4R,5R)-2,3,4,5,6-pentahydroxyhexyl)-2,7-diazaspiro[3.5]nonan-7-yl)ethan-1-one] displayed an Emax of 100 to 130% and an EC50 of 0.1 to 1 µM.

`O=C(Cc1ccc(OCCCC2CCN(c3ncc(Cl)cn3)CC2)cc1F)N1CCN(C[C@H](O)[C@H](O)[C@H](O)CO)CC1` [Example 71, 2-(4-(3-(1-(5-chloropyrimidin-2-yl)piperidin-4-yl)propoxy)-2-fluorophenyl)-1-(4-((2S,3S,4R)-2,3,4,5-tetrahydroxypentyl)piperazin-1-yl)ethan-1-one] showed an Emax of 100 to 130% and an EC50 of no more than 0.1 µM.

For the compound `O=C(Cc1ccc(OCCCC2CCN(c3ncc(Cl)cn3)CC2)cc1F)N1CCC2(CN(C[C@H](O)[C@H](O)[C@H](O)CO)CCO2)C1` (stereo partly drawn) [Example 72, 2-(4-(3-(1-(5-chloropyrimidin-2-yl)piperidin-4-yl)propoxy)-2-fluorophenyl)-1-(9-((2S,3S,4R)-2,3,4,5-tetrahydroxypentyl)-6-oxa-2,9-diazaspiro[4.5]decan-2-yl)ethan-1-one], the Emax lay within 100 to 130% and the EC50 is no more than 0.1 µM.

Compound `O=C(Cc1ccc(OCCCC2CCN(c3ncc(Cl)cn3)CC2)cc1F)N1CCC2(CN(C[C@H](O)[C@@H](O)[C@H](O)[C@H](O)CO)CCO2)C1` (stereo partly drawn) [Example 73, 2-(4-(3-(1-(5-chloropyrimidin-2-yl)piperidin-4-yl)propoxy)-2-fluorophenyl)-1-(9-((2S,3R,4R,5R)-2,3,4,5,6-pentahydroxyhexyl)-6-oxa-2,9-diazaspiro[4.5]decan-2-yl)ethan-1-one] yielded an Emax of 100 to 130% and an EC50 of no more than 0.1 µM.

`O=C(Cc1ccc(OCCCC2CCN(c3ncc(Cl)cn3)CC2)cc1F)N1CCC2(CCCN2C[C@H](O)[C@H](O)[C@H](O)CO)C1` (stereo partly drawn) [Example 74, 2-(4-(3-(1-(5-chloropyrimidin-2-yl)piperidin-4-yl)propoxy)-2-fluorophenyl)-1-(1-((2S,3S,4R)-2,3,4,5-tetrahydroxypentyl)-1,7-diazaspiro[4.4]nonan-7-yl)ethan-1-one]: the Emax is no less than 130% and the EC50 is no more than 0.1 µM.

`O=C(Cc1ccc(OCCCC2CCN(c3ncc(Cl)cn3)CC2)cc1F)N1CCC2(CCCC2NC[C@H](O)[C@H](O)[C@H](O)CO)C1` (stereo partly drawn) [Example 76, 2-(4-(3-(1-(5-chloropyrimidin-2-yl)piperidin-4-yl)propoxy)-2-fluorophenyl)-1-(6-(((2S,3S,4R)-2,3,4,5-tetrahydroxypentyl)amino)-2-azaspiro[4.4]nonan-2-yl)ethan-1-one] had an Emax of no less than 130% and an EC50 of no more than 0.1 µM.

`O=C(Cc1ccc(OCCCC2CCN(c3ncc(Cl)cn3)CC2)cc1F)N1CC2(CCC2NC[C@H](O)[C@H](O)[C@H](O)CO)C1` (stereo partly drawn) [Example 78, 2-(4-(3-(1-(5-chloropyrimidin-2-yl)piperidin-4-yl)propoxy)-2-fluorophenyl)-1-(5-(((2S,3S,4R)-2,3,4,5-tetrahydroxypentyl)amino)-2-azaspiro[3.3]heptan-2-yl)ethan-1-one] showed an Emax of no less than 130% and an EC50 of no more than 0.1 µM.

With `O=C(Cc1ccc(OCCCC2CCN(c3ncc(Cl)cn3)CC2)cc1F)N1CCOC2(CCN(C[C@H](O)[C@H](O)[C@H](O)CO)C2)C1` (stereo partly drawn) [Example 80, 2-(4-(3-(1-(5-chloropyrimidin-2-yl)piperidin-4-yl)propoxy)-2-fluorophenyl)-1-(2-((2S,3S,4R)-2,3,4,5-tetrahydroxypentyl)-6-oxa-2,9-diazaspiro[4.5]decan-9-yl)ethan-1-one], the Emax fell in the range of 100 to 130% and the EC50 was no more than 0.1 µM.

Compound `O=C(Cc1ccc(OCCCC2CCN(c3ncc(Cl)cn3)CC2)cc1F)N1CCOC2(CCN(C[C@H](O)[C@@H](O)[C@H](O)[C@H](O)CO)C2)C1` (stereo partly drawn) [Example 81, 2-(4-(3-(1-(5-chloropyrimidin-2-yl)piperidin-4-yl)propoxy)-2-fluorophenyl)-1-(2-((2S,3R,4R,5R)-2,3,4,5,6-pentahydroxyhexyl)-6-oxa-2,9-diazaspiro[4.5]decan-9-yl)ethan-1-one] had an Emax of 100 to 130% and an EC50 of no more than 0.1 µM.

`O=C(Cc1ccc(OCCCC2CCN(c3ncc(Cl)cn3)CC2)cc1F)N1CC2(C1)OCC2NC[C@H](O)[C@H](O)[C@H](O)CO` (stereo partly drawn) [Example 82, 2-(4-(3-(1-(5-chloropyrimidin-2-yl)piperidin-4-yl)propoxy)-2-fluorophenyl)-1-(3-(((2S,3S,4R)-2,3,4,5-tetrahydroxypentyl)amino)-1-oxa-6-azaspiro[3.3]heptan-6-yl)ethan-1-one] had an Emax of 100 to 130% and an EC50 of no more than 0.1 µM.

`O=C(Cc1ccc(OCCCC2CCN(c3ncc(Cl)cn3)CC2)cc1F)N1CCC2(CC2NC[C@H](O)[C@H](O)[C@H](O)CO)C1` (stereo partly drawn) [Example 83, 2-(4-(3-(1-(5-chloropyrimidin-2-yl)piperidin-4-yl)propoxy)-2-fluorophenyl)-1-(1-(((2S,3S,4R)-2,3,4,5-tetrahydroxypentyl)amino)-5-azaspiro[2.4]heptan-5-yl)ethan-1-one] yielded an Emax of 100 to 130% and an EC50 of no more than 0.1 µM.

In turn, `O=C(Cc1c(F)cc(OCCCC2CCN(c3ncc(Cl)cn3)CC2)cc1F)N1CCN(C[C@H](O)[C@@H](O)[C@H](O)[C@H](O)CO)CC1` [Example 85, 2-(4-(3-(1-(5-chloropyrimidin-2-yl)piperidin-4-yl)propoxy)-2,6-difluorophenyl)-1-(4-((2S,3R,4R,5R)-2,3,4,5,6-pentahydroxyhexyl)piperazin-1-yl)ethan-1-one formate] had an Emax of no less than 130% and an EC50 of no more than 0.1 µM.

For the compound `O=C(Cc1ccc(OCCCCC2CCN(c3ncc(Cl)cn3)CC2)cc1F)N1CCN(C[C@H](O)[C@@H](O)[C@H](O)[C@H](O)CO)CC1` [Example 86, 2-(4-(4-(1-(5-chloropyrimidin-2-yl)piperidin-4-yl)butoxy)-2-fluorophenyl)-1-(4-((2S,3R,4R,5R)-2,3,4,5,6-pentahydroxyhexyl)piperazin-1-yl)ethan-1-one], the maximal response (Emax) lay within 100 to 130% and the EC50 is no more than 0.1 µM.

As to `O=C(Cc1c(F)cc(OCCCCC2CCN(c3ncc(Cl)cn3)CC2)cc1F)N1CCN(C[C@H](O)[C@@H](O)[C@H](O)[C@H](O)CO)CC1` [Example 87, 2-(4-(4-(1-(5-chloropyrimidin-2-yl)piperidin-4-yl)butoxy)-2,6-difluorophenyl)-1-(4-((2S,3R,4R,5R)-2,3,4,5,6-pentahydroxyhexyl)piperazin-1-yl)ethan-1-one], the maximal response (Emax) is no less than 130% and the EC50 is no more than 0.1 µM.
